Results: the NIST ThermoML archive (doi:10.1016/j.jct.2008.03.017)
Numbers after ± are expanded uncertainties.

Conditions: Liquid; for mass density: 101.33 kPa

mass density (298.15 K) [kg/m3] | vapor or sublimation pressure (298.15 K) [kPa] | mass density (328.15 K) [kg/m3] | vapor or sublimation pressure (328.15 K) [kPa] | SMILES
881.95 ± 0.45 | 21.61 ± 0.15 | 865.36 ± 0.49 | 70.61 ± 0.22 | C1CCOC1 [tetrahydrofuran]
878.81 ± 0.81 | 9.56 ± 0.14 | 863.67 ± 0.85 | 33.95 ± 0.17 | C1CCOCC1 [tetrahydropyran]

Continued, compound first:

SMILES | mass density (298.15 K) [kg/m3] | vapor or sublimation pressure (298.15 K) [kPa] | mass density (328.15 K) [kg/m3] | vapor or sublimation pressure (328.15 K) [kPa]
C1COCO1 [1,3-dioxolane] | 1058.62 ± 0.71 | 13.54 ± 0.14 | 1039.88 ± 0.64 | 49.01 ± 0.19
C1COCCO1 [1,4-dioxane] | 1027.87 ± 0.6 | 4.9 ± 0.13 | 1010.69 ± 0.53 | 19.54 ± 0.15
CCCCCCCl [1-chlorohexane] | 873.5 | 1.255 ± 0.13 | 859.01 | 5.965 ± 0.13
